Measured values published in ChEMBL document CHEMBL1201862, “PubChem BioAssay data set” (2004).
Activity calls are given as the source filed them.

Key:
[1] = molecular target: T1, CAAX prenyl protease 2 (Saccharomyces cerevisiae S288c, UniProt Q03530); type: biochemical
T1 sequence (Q03530 whole entry): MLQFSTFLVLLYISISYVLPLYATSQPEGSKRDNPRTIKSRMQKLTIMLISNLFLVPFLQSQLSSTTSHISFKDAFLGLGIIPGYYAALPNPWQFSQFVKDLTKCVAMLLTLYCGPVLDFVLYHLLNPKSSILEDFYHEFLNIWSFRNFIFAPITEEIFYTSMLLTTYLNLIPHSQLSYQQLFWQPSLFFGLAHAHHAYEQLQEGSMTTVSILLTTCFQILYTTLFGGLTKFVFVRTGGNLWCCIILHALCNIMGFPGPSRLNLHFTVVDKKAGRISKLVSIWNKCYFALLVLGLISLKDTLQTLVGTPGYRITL

[2] = molecular target: Trypsin (Sus scrofa, UniProt P00761); experiment: trypsin protease activity blockade – biochemical, quenched peptide fluorescence, cherry-pick, selectivity assay for Rce1 protease inhibitor project, dose response (AID 488789)
Chain of Trypsin (P00761 whole entry): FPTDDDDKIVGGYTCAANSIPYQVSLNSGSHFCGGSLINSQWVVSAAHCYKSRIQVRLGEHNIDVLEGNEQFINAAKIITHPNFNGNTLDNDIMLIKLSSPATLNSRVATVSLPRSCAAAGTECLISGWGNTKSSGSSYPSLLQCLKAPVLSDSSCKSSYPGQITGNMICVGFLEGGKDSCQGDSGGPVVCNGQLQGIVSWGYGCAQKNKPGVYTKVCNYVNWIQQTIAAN

[3] = molecular target: Cytochrome P450 2C9 (Homo sapiens, UniProt P11712)
Chain of Cytochrome P450 2C9 (P11712 whole entry): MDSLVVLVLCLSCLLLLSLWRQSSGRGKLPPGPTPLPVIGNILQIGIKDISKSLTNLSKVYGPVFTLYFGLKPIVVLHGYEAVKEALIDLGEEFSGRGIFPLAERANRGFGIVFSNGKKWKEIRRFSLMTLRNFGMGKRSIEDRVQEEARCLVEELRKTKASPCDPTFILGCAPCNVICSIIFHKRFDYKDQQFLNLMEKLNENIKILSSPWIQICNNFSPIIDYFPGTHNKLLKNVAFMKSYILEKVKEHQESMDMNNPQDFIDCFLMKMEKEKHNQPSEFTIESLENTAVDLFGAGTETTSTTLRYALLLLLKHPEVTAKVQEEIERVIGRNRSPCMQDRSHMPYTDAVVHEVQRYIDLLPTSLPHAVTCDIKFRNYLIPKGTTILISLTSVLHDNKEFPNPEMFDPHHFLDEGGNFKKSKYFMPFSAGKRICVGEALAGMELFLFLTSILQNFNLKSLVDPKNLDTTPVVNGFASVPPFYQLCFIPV

[4] = molecular target: Cytochrome P450 2D6 (Homo sapiens, UniProt P10635);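 further: CYP2D6 member of a cytochrome P450 panel assay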
Chain of Cytochrome P450 2D6 (P10635 whole entry): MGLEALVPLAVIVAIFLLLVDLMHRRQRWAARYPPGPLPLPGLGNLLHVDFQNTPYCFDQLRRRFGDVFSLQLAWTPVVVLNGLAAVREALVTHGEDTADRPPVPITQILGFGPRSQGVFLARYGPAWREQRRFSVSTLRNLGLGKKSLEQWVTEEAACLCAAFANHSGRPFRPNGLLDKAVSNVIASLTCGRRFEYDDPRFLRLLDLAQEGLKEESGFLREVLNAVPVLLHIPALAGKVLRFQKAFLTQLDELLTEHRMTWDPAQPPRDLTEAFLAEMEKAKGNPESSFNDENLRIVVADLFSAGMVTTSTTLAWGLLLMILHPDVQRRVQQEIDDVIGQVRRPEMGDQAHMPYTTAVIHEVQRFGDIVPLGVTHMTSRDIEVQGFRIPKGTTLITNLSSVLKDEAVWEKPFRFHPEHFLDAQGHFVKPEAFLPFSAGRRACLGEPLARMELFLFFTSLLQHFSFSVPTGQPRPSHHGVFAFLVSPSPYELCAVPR

[5] = molecular target: Glyceraldehyde-3-phosphate dehydrogenase (Homo sapiens, UniProt P04406)
Chain of Glyceraldehyde-3-phosphate dehydrogenase (P04406 whole entry): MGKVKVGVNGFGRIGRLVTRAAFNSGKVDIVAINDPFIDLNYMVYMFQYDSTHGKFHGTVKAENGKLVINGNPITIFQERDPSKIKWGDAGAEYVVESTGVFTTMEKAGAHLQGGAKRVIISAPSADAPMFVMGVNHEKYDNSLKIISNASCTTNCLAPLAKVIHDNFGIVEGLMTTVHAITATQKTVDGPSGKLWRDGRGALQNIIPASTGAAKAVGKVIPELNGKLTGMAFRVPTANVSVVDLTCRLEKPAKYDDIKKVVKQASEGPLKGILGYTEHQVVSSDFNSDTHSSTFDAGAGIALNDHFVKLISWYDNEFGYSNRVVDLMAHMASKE

[6] = molecular target: T2, Protein skinhead-1 (Caenorhabditis elegans, UniProt P34707); type: functional
T2 sequence (P34707 whole entry): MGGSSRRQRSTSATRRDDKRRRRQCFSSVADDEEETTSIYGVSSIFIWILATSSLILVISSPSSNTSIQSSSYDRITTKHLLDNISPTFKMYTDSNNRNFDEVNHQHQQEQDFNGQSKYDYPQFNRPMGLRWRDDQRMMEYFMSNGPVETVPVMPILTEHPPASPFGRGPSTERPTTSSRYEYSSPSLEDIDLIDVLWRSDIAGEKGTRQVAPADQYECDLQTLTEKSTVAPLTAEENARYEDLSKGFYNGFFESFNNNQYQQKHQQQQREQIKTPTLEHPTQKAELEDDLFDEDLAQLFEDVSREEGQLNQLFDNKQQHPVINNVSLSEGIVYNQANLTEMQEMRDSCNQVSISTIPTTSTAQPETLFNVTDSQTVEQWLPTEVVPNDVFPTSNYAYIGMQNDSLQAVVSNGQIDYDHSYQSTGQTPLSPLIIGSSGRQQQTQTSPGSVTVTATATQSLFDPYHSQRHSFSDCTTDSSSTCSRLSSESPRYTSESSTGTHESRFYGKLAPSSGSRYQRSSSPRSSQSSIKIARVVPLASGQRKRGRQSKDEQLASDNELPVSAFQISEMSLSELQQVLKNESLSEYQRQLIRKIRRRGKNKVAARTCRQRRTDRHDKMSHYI

[7] = molecular target: T3, Alkaline phosphatase, tissue-nonspecific isozyme (Homo sapiens, UniProt P05186); experiment: potency against alkaline phosphatase TNAP – biochemical, luminescent, dose response, SAR follow-up (AID 1056)
T3 sequence (P05186 whole entry): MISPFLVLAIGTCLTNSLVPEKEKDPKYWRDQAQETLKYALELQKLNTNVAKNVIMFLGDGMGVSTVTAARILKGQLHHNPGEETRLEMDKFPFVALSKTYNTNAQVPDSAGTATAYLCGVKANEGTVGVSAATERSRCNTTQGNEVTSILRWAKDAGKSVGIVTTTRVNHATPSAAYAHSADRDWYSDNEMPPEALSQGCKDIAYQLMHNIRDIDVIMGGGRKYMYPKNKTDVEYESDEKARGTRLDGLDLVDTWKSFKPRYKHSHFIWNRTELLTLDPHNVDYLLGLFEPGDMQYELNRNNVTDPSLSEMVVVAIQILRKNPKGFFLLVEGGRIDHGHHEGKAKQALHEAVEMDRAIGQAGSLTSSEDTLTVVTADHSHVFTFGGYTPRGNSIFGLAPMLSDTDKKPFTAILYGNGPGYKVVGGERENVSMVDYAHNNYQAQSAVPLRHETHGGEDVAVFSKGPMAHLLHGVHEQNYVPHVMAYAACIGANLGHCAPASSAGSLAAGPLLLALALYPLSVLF

[8] = molecular target: T4, X-box-binding protein 1 (Homo sapiens, UniProt P17861); type: functional, Cricetulus griseus;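 further: confirmatory dose-response counter-screen serving a CHOP assay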
T4 sequence (P17861 whole entry): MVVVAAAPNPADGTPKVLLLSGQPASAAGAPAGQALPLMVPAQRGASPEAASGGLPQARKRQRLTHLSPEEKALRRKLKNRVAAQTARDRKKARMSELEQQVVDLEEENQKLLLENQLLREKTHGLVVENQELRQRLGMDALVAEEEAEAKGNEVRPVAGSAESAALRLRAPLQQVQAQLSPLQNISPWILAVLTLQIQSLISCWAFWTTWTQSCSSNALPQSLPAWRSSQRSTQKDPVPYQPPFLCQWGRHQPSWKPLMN

[9] = molecular target: T5, Bcl-2-like protein 10 (Homo sapiens, UniProt Q9HD36); experiment: Bcl-B/TR3 peptide binding disruption – biochemical, fluorescence polarization, FITC-TR3 peptide, selectivity assay for Bfl-1 inhibitor project, primary screen (AID 748);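 further: fluorescence polarization from a fluorescein-labelled TR3 peptide binding purified Bcl-B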
T5 sequence (Q9HD36 whole entry): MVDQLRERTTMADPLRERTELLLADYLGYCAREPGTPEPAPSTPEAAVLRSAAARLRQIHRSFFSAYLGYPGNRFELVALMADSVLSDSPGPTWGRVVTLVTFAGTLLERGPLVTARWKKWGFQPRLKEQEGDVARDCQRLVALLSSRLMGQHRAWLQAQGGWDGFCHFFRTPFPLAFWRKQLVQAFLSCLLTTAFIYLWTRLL

[10] = molecular target: G-protein coupled receptor 55 (Homo sapiens, UniProt Q9Y2T6); experiment: inhibition of LPI-stimulated GPR55 beta-arrestin translocation – imaging, U2OS, beta-arrestin-GFP, LPI agonist, primary screen (AID 2013); type: functional;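 further: antagonist potency measured as reduced agonist-driven arrestin aggregation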
Chain of G-protein coupled receptor 55 (Q9Y2T6 whole entry): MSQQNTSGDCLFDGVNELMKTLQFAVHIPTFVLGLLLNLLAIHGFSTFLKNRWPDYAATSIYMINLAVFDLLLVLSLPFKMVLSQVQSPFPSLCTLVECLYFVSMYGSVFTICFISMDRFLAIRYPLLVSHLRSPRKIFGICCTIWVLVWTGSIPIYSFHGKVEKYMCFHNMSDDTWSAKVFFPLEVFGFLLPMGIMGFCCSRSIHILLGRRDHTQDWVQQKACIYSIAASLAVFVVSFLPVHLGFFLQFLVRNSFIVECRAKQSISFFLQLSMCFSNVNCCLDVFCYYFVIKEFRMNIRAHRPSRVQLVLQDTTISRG

[11] = molecular target: Protein-tyrosine kinase 2-beta (Homo sapiens, UniProt Q14289);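 further: potency of inhibitors of PYK2 kinase phosphorylation of poly-GT substrate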
Chain of Protein-tyrosine kinase 2-beta (Q14289 whole entry): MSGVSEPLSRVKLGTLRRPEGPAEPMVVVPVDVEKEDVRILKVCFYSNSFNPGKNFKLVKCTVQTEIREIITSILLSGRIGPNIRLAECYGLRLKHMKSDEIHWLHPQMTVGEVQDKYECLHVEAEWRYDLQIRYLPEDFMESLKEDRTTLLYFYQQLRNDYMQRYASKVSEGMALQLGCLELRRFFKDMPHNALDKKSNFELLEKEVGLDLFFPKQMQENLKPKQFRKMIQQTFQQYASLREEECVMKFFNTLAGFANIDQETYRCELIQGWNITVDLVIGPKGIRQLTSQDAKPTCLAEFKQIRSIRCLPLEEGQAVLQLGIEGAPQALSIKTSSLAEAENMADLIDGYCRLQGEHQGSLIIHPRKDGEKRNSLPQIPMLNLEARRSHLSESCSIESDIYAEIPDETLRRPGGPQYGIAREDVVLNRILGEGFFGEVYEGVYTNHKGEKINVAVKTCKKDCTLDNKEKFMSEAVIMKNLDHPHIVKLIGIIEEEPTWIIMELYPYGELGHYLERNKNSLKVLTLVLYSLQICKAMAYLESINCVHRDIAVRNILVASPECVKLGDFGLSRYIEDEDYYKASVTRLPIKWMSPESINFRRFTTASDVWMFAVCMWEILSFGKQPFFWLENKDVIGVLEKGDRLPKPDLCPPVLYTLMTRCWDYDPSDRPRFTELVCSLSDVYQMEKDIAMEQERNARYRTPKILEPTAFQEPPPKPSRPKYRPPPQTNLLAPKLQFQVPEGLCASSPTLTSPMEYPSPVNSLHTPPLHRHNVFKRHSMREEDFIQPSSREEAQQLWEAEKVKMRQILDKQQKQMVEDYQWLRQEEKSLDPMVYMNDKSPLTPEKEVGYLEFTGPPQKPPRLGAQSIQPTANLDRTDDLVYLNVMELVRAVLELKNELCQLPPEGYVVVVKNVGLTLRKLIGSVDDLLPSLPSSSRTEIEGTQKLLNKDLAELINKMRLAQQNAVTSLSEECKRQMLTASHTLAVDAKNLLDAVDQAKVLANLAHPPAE

[12] = molecular target: T6, Coagulation factor XII (Homo sapiens, UniProt P00748); type: functional;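 further: activated factor XIIa alpha cleaving a fluorogenic AMC peptide substrate; inhibitor potency from loss of enzyme activity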
T6 sequence (P00748 whole entry): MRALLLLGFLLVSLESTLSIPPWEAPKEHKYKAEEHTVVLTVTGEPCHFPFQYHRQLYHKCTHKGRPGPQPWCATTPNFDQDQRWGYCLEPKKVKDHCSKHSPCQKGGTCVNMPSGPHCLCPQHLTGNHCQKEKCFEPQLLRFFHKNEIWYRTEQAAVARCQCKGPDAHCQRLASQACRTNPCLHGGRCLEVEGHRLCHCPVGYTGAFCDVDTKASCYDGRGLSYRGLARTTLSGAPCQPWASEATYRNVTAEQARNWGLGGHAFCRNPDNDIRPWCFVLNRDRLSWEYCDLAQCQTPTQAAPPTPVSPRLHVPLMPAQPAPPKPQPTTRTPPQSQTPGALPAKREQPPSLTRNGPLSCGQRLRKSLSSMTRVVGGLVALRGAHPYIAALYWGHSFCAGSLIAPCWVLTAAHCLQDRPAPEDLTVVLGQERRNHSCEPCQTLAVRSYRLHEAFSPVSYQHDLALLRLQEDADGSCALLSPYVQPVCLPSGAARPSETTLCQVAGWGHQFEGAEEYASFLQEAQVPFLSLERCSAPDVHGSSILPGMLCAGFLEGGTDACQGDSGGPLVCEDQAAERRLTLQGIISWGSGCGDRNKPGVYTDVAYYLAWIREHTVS

[13] = molecular target: Troponin, cardiac muscle (Homo sapiens, UniProt P19429+P45379+P63316); experiment: Fluorescence-based biochemical high throughput dose response assay for activators of the calcium sensitivity of cardiac Regulated Thin Filaments (RTF). [Related pubchem assays (depositor defined):AID493008, AID493018, AID504382, AID504383]; type: protein-complex assay
[14] = decrease of insulin promoter-GFP reporter – imaging, high-content screening, mouse beta cells (AID 1628); type: functional; conditions: MIN6
[15] = MIN6 cell viability loss – mouse insulinoma, cytotoxicity control, dose response (AID 2122); type: functional;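 further: confirmatory high-throughput counterscreen run to flag cytotoxic compounds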
[16] = test system: BJ; experiment: BJ-TERT fibroblast viability loss – cell-based, RAS-independent, luminescence, dose response (AID 1933); type: functional; conditions: Homo sapiens
[17] = DRD fibroblast viability loss – cell-based, non-viral oncogenic, luminescence, dose response (AID 1934); type: functional; conditions: Homo sapiens
[18] = test system: BJ; experiment: cells; type: functional, cell-based; conditions: Homo sapiens
[19] = test system: BJ; experiment: BJ-TERT-LT-ST fibroblast viability loss – cell-based, RAS-independent, luminescence, dose response (AID 1935); type: functional; conditions: Homo sapiens;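 further: BJ fibroblasts immortalized with TERT plus LT and ST oncogenes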
[20] = molecular target: FAD-linked sulfhydryl oxidase ALR (Homo sapiens, UniProt P55789); experiment: ALR-catalysed DTT oxidation blockers – biochemical, H2O2 detection, luminescence, cherry-pick, dose response (AID 493248)
Chain of FAD-linked sulfhydryl oxidase ALR (P55789 whole entry): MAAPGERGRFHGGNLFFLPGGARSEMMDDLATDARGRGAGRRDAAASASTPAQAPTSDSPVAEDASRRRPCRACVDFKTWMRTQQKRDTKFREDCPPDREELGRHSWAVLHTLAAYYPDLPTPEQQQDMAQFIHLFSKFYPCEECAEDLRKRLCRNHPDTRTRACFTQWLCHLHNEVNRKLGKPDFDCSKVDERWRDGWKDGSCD

[21] = molecular target: Nonstructural protein 1 (Influenza A virus, UniProt Q194T2); type: functional, Influenza A virus (A/California/07/2009(H1N1))
Chain of Nonstructural protein 1 (Q194T2 whole entry): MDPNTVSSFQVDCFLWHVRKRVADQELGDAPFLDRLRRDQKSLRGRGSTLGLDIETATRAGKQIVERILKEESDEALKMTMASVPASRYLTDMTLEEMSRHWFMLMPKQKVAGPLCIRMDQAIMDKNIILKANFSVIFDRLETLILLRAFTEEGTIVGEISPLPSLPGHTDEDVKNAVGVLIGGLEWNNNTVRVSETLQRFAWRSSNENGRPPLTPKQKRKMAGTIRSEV

[22] = Luminescence Cell-Based Dose Retest to Confirm Inhibitors of Cancer Stem Cells. [Related pubchem assays (depositor defined):AID2717, AID2721]; type: functional; conditions: Homo sapiens
[23] = molecular target: T7, Hexokinase (Trypanosoma brucei, UniProt Q38C41); experiment: Confirmation assay for inhibitors of Trypanosoma brucei hexokinase 1-Analogue-first series. [Related pubchem assays (depositor defined):AID1430, AID1632, AID2516, AID2560, AID2579, AID2600, AID449725, AID492951]; type: functional
T7 sequence (Q38C41 whole entry): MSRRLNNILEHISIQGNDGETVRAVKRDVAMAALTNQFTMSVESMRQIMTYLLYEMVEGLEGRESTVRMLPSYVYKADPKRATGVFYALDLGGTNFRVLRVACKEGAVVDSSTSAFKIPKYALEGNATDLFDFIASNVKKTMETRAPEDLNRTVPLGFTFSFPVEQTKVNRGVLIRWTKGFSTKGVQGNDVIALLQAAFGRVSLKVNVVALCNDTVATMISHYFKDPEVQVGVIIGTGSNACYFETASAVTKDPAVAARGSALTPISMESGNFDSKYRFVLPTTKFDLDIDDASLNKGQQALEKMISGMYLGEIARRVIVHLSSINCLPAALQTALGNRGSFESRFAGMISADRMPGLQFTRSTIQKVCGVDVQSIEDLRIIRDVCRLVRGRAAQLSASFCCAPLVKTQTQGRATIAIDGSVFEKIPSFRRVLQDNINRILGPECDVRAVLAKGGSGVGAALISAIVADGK

[24] = test system: HEK293; experiment: EBV LMP1 TES2 canonical NF-kB signalling blockers – cell-based, HEK293, luciferase, cherry-pick, dose response (AID 588343); type: functional; conditions: Homo sapiens

Q: For `Cc1cc(C)n2cc(CSc3nncn3C)nc2n1`, which AC50 [1] is on record?
A: 13.8 µM (active)

Q: What about the AC50 [2] of the same compound?
A: 8.35 µM (active)

Q: With `O=c1c(-c2nnc(SCc3ccc(Cl)c(Cl)c3)o2)cccn1Cc1ccccc1` as the compound, how does the AC50 [1] read?
A: 11 µM (active)

Q: What about the AC50 [3] of the same compound?
A: 15.8 µM (inconclusive)

Q: What about the AC50 [4] of the same compound?
A: 28.2 µM (inconclusive)

Q: For `COC(=O)c1cc(-c2ccc(Br)cc2)n[nH]1`, which IC50 [5] is on record?
A: > 100 µM (not active)

Q: What about the IC50 [6] of the same compound?
A: > 100 µM (inactive)

Q: And the IC50 [7]?
A: > 100 µM (inactive)

Q: Which “Absolute IC50 (XBP1)” value [8] does the source give for `CCN(CC)CCOC(=O)c1ccc(N/C=C(/C#N)c2nc(-c3cccc(OC)c3)cs2)cc1` here?
A: 10 µM

Q: Which IC50 [9] does the source give for `Cc1c(NC(=O)c2cc3nc(-c4ccccc4)cc(C)n3n2)c(=O)n(-c2ccccc2)n1C` here?
A: 81.2 µM (inactive)

Q: With `Cc1ccccc1N(C(=O)c1cccs1)c1nc2ccccc2s1` as the compound, how does the IC50 [10] read?
A: 1.52 µM (active)

Q: With `O=c1oc(-c2ccc(Br)o2)nc2ccccc12` as the compound, how does the IC50 [11] read?
A: 2.66 µM (active)

Q: What about the IC50 [12] of the same compound?
A: > 50 µM (inactive)

Q: For `COc1ccccc1N1CCN(c2ccc([N+](=O)[O-])cc2Cl)CC1`, which EC50 [13] is on record?
A: > 71.5 µM (inactive)

Q: For `CCc1nc(C)cn1S(=O)(=O)c1cc([N+](=O)[O-])ccc1Cl`, which IC50 [14] is on record?
A: 2.59 µM (active)

Q: What about the IC50 [15] of the same compound?
A: 2.53 µM (active)

Q: And the EC50 [16]?
A: 8.45 µM (inconclusive)

Q: What about the EC50 [17] of the same compound?
A: 7.62 µM (inconclusive)

Q: What about the EC50 [18] of the same compound?
A: 4.81 µM (inconclusive)

Q: And the IC50 [10]?
A: 6.53 µM (active)

Q: And the EC50 [19]?
A: 3.93 µM (active)

Q: With `NS(=O)(=O)c1ccc(NNC(=O)c2sccc2Cl)cc1` as the compound, how does the IC50 [12] read?
A: > 50 µM (inactive)

Q: With `O=C(Nc1cccnc1)c1ccc(S(=O)(=O)N2CCCCCC2)cc1` as the compound, how does the IC50 [9] read?
A: > 100 µM (inactive)

Q: Which EC50 [13] does the source give for `O=C1NC(=O)N(Cc2ccc(F)cc2)C(=O)/C1=C/NNc1ccccc1` here?
A: > 71.5 µM (inactive)

Q: And the AC50 [20]?
A: 0.438 µM (active)

Q: Which IC50 [21] does the source give for `CC1=NN(c2ccc(C)cc2)C(=O)/C1=C\C=C\c1ccccc1` here?
A: 21.1 µM (active)

Q: For `CNC(=O)NC(=O)C(C)OC(=O)c1oc2ccccc2c1CSc1ccc(Cl)cc1` (configuration not stated), which “Absolute IC50 (XBP1)” value [8] is on record?
A: 10 µM

Q: And the AC50 [22]?
A: 12.3 µM (active)

Q: For `O=C(Nc1cc(Cl)ccc1C(=O)O)c1ccc(OC(F)(F)F)cc1`, which IC50 [23] is on record?
A: > 25 µM (inactive)

Q: With `O=c1c2c(Br)cccc2sn1-c1ccccc1` as the compound, how does the IC50 [23] read?
A: 1.93 µM (active)

Q: With `Cc1ccsc1/C=N/NC(=O)c1ccc2c(c1)OCCO2` as the compound, how does the AC50 [24] read?
A: 7.87 µM (active)

Q: What about the IC50 [12] of the same compound?
A: > 50 µM (inactive)
